Test results: PubChem BioAssay (NCI)
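Interpolation was linear, between the two tested concentrations surrounding the appropriate level; five concentrations were tested over 48 hours in 96-well plates. The concentration for 50% growth inhibition is given as GI50. At the TGI there is no net growth.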

Experiments:
Test in all cases: NCI-60 cell line screen, 48 h
CAKI-1 renal = system: CAKI-1 renal
LOX IMVI melanoma = system: LOX IMVI melanoma
M14 melanoma = system: M14 melanoma
NCI-H522 lung = system: NCI-H522 lung
OVCAR-8 ovarian = system: OVCAR-8 ovarian
SK-MEL-2 melanoma = system: SK-MEL-2 melanoma
SK-MEL-28 melanoma = system: SK-MEL-28 melanoma
DU-145 prostate = system: DU-145 prostate
MDA-MB-231 breast = system: MDA-MB-231 breast
BT-549 breast = system: BT-549 breast

| Compound | TGI (CAKI-1 renal) [µM] | TGI (LOX IMVI melanoma) [µM] | TGI (M14 melanoma) [µM] | TGI (NCI-H522 lung) [µM] | TGI (OVCAR-8 ovarian) [µM] | TGI (SK-MEL-2 melanoma) [µM] | TGI (SK-MEL-28 melanoma) [µM] | GI50 (CAKI-1 renal) [µM] | GI50 (DU-145 prostate) [µM] | TGI (DU-145 prostate) [µM] | GI50 (LOX IMVI melanoma) [µM] | GI50 (M14 melanoma) [µM] | GI50 (MDA-MB-231 breast) [µM] | TGI (MDA-MB-231 breast) [µM] | GI50 (NCI-H522 lung) [µM] | GI50 (SK-MEL-2 melanoma) [µM] | GI50 (SK-MEL-28 melanoma) [µM] | GI50 (BT-549 breast) [µM] | TGI (BT-549 breast) [µM] | GI50 (OVCAR-8 ovarian) [µM] |
| --- | --- | --- | --- | --- | --- | --- | --- | --- | --- | --- | --- | --- | --- | --- | --- | --- | --- | --- | --- | --- |
| CC(=O)NNc1nc(C)c(C(=O)NNC(=O)C(=O)Nc2ccccc2C#N)s1 | > 100 | > 100 | > 100 | > 100 | > 100 | > 100 | > 100 | – | – | – | – | – | – | – | – | – | – | – | – | – |
| N#CC(C(=O)/C(=N/NC(=O)c1ccccc1O)C(C#N)c1ccc(Cl)cc1)c1ccc(Cl)cc1 (stereo not drawn) | – | 27.3 | 38.8 | – | 26.3 | 30.1 | 27.7 | – | – | – | – | – | – | – | – | – | – | – | – | – |
| CNS(=O)(=O)NN(C)S(=O)(=O)c1ccc(F)cc1 | > 100 | > 100 | > 100 | > 100 | > 100 | > 100 | > 100 | – | – | – | – | – | – | – | – | – | – | – | – | – |
| Cc1cc(N(CCC#N)S(=O)(=O)c2ccccc2)ccc1/C=C1N=C(/C=C/c2ccccc2)OC\1=O | > 100 | > 100 | > 100 | > 100 | > 100 | > 100 | > 100 | – | – | – | – | – | – | – | – | – | – | – | – | – |
| COc1cccc(NC(=O)CC(=O)N2N=C(N(CCC#N)c3ccc(Cl)cc3)CC2c2ccccc2)c1 (stereo not drawn) | > 100 | > 100 | > 100 | > 100 | > 100 | > 100 | > 100 | – | – | – | – | – | – | – | – | – | – | – | – | – |
| Cc1cccc(NC(=O)CC(=O)N2N=C(N(CCC#N)c3ccc(Cl)cc3)CC2c2ccccc2)c1 (stereo not drawn) | > 100 | > 100 | > 100 | > 100 | > 100 | – | > 100 | – | – | – | – | – | – | – | – | – | – | – | – | – |
| N#C/C(=C1\OC(=O)C(c2ccc(Br)cc2)=C1O)c1ccc(Br)cc1 | 35.6 | 30.7 | 28.4 | 25.6 | 24.6 | – | 31.7 | – | – | – | – | – | – | – | – | – | – | – | – | – |
| COc1ccc2c(c1)C(O)(C(F)(F)F)c1cc(C(=O)C(F)(F)F)c3ccccc3c1N2 (stereo not drawn) | 26.8 | 16.5 | 18.1 | 20.6 | – | 25.2 | 27.7 | – | – | – | – | – | – | – | – | – | – | – | – | – |
| CCOC(=O)C1=C(C)N(Cc2ccccc2)C(C)=C(C(=O)OCC)C1c1ccccc1O | > 100 | 39.7 | > 100 | 74.5 | > 100 | 52.7 | > 100 | – | – | – | – | – | – | – | – | – | – | – | – | – |
| CN(C(=O)C12C3C4C5C3C1(C(=O)O)C5C42)C(C)(C)C (stereo not drawn) | > 100 | 65.1 | > 100 | > 100 | > 100 | > 100 | > 100 | – | – | – | – | – | – | – | – | – | – | – | – | – |
| CC1=NOC(=O)/C1=C/c1ccccc1O | > 100 | > 100 | > 100 | > 100 | > 100 | > 100 | > 100 | – | – | – | – | – | – | – | – | – | – | – | – | – |
| C[N+](C)(C)CC(=O)N/N=C(/Cc1nc2c3c(ccc2[nH]c1=O)C(=O)c1ccccc1C3=O)C(=O)Nc1ccc(Cl)c(Cl)c1 | 87 | – | > 100 | > 100 | > 100 | > 100 | > 100 | – | – | – | – | – | – | – | – | – | – | – | – | – |
| C=CCC1([C@H](C)[C@@H](OC(C)=O)c2cc(OC)c(OC)c(OC)c2)C[C@@H](OC)CCC1=O (stereo partly drawn) | > 100 | – | 30.4 | 25.4 | 54.2 | 38.9 | 52.4 | – | – | – | – | – | – | – | – | – | – | – | – | – |
| Cc1sc(C(=O)Nc2cc(C(=O)NCCCN(C)C)n(C)c2)cc1NC(=O)CCCN1C(=O)c2cccc3cccc(c23)C1=O | > 100 | > 100 | > 100 | > 100 | – | > 100 | > 100 | > 100 | > 100 | > 100 | > 100 | > 100 | > 100 | > 100 | > 100 | > 100 | > 100 | – | – | – |
| Nc1ccn(Cc2ccc(C34CC5CC(CC(C5)C3)C4)c(O)c2)c(=O)n1 | > 100 | > 100 | > 100 | > 100 | – | > 100 | > 100 | > 100 | > 100 | > 100 | > 100 | > 100 | > 100 | > 100 | 40.9 | 76.1 | > 100 | > 100 | > 100 | – |
| CC(=O)NC(CCCNCc1ccccc1)C(=O)NCc1ccccc1 (stereo not drawn) | > 100 | > 100 | > 100 | > 100 | > 100 | > 100 | > 100 | – | – | – | – | – | – | – | – | – | – | – | – | – |
| O=C(O)c1ccc([Se][Se]c2ccc(C(=O)O)cc2)cc1 | 36.7 | – | 35.6 | 52 | 70.8 | 63.2 | 55.6 | – | – | – | – | – | – | – | – | – | – | – | – | – |
| CCCCOc1ccc(NC(N)=Nc2ccc(Cl)cc2)cc1 | – | 15.1 | 11.6 | 16.5 | 25 | 9.73 | 26.7 | – | – | 13.6 | – | – | – | 27.2 | – | – | – | – | 23.4 | – |
| O=C([O-])c1ccccc1Nc1ccccn1.O=C([O-])c1ccccc1Nc1ccccn1.[Ni+2] | > 100 | > 100 | > 100 | > 100 | > 100 | > 100 | > 100 | > 100 | – | – | > 100 | > 100 | – | – | > 100 | > 100 | 58.9 | – | – | > 100 |
| CC1=NCCc2c1[nH]c1cc(O)ccc21 | > 100 | > 100 | > 100 | – | > 100 | > 100 | > 100 | – | – | – | – | – | – | – | – | – | – | – | – | – |
| COc1ccccc1NC(=O)C1=C(C)NC(C)=C(C(=O)Nc2ccccc2OC)C1c1ccccc1F | > 100 | > 100 | > 100 | – | > 100 | > 100 | > 100 | – | – | – | – | – | – | – | – | – | – | – | – | – |
| CNC(=O)OCc1nc(SC2CCCCO2)n(C)c1COC(=O)NC (stereo not drawn) | > 100 | > 100 | > 100 | > 100 | > 100 | > 100 | > 100 | – | – | – | – | – | – | – | – | – | – | – | – | – |
| COc1ccc(N2C(C)=C(C#N)C34C(=O)N(c5ccccc5)C(=O)C3=C(O)C=CC24O)cc1 (stereo not drawn) | 16.6 | 18.8 | 38.6 | – | > 100 | 46.3 | 30.1 | 2.65 | 10.5 | 26.8 | 5.24 | 13.6 | 14.5 | 29.8 | – | 19.5 | 12 | 9.75 | 22.4 | 23.3 |
| CCCCCCCCCc1cc(=O)c2ccc(OCc3ccccc3)cc2o1 | 13.4 | > 100 | > 100 | > 100 | > 100 | > 100 | > 100 | – | – | – | – | – | – | – | – | – | – | – | – | – |
